Data on 5 compounds can be found in patent publication US7566739B2, “Substituted N-sulfonylaminophenylethyl-2-phenoxyacetamide compounds as VR1 receptor antagonists” (Pfizer Inc., priority 2005, dated 2009).

In one data set the target is human VR1 (Homo sapiens, UniProt Q8NER1). Kind of data set: Human VR1 antagonist assay (Ca2+ imaging, capsaicin stimulation). Format: cell-based. Particulars: human VR1 expressing cells; concentration reducing capsaicin-evoked Ca2+ influx by 50%; capsaicin 300 nM; read-out: hVR1 IC50. From the text:
VR1 antagonistic activity can be determined by the Ca^2+ imaging assay using human VR1 highly expressing cells. The cells that highly express human VR1 receptors are obtainable from several different conventional methods. The one standard method is cloning from human Dorsal Root Ganglion (DRG) or kidney according to the methods such as described in the journal article; Nature, 389, pp 816-824, 1997. Alternatively VR1 receptors highly expressing human keratinocytes are also known and published in the journal article (Biochemical and Biophysical Research Communications, 291, pp 124-129, 2002). […] Such a genetic modification method was described in detail; Nat. Biotechnol., 19, pp 440-445, 2001. The cells that express human VR1 receptors were maintained in culture flask at 37° C. in an environment containing 5% CO2 until use in the assay. The intracellular Ca^2+ imaging assay to determine VR1 antagonistic activities was done according to the following procedures. The culture medium was removed from the flask and fura-2/AM fluorescent calcium indicator was added to the flask at a concentration of 5 μM in the medium. The flask was placed in CO2 incubator and incubated for 1 hour. Then the cells expressing the human VR1 receptors were detached from the flask follow by washing with phosphate buffer saline, PBS(−) and re-suspended in assay buffer. The 80 μl of aliquot of cell suspension (3.75×10^5 cells/ml) was added to the assay plate and the cells were spun down by centrifuge (950 rpm, 20° C., 3 minutes). The capsaicin-induced changes in the intracellular calcium concentration were monitored using FDSS 6000 (Hamamatsu Photonics, Japan), a fluorometric imaging system. The cell suspension in Krebs-Ringer HEPES (KRH) buffer (115 mM NaCl, 5.4 mM KCl, 1 mM MgSO4, 1.8 mM CaCl2, 11 mM D-Glucose, 25 mM HEPES, 0.96 mM Na2HPO4, pH 7.3) was pre-incubated with varying concentrations of the test compounds or KRH buffer (buffer control) for 15 minutes at room temperature under dark conditions. Then the capsaicin solution, which gives 300 nM in assay mixture, was automatically added to the assay plate by the FDSS 6000. The monitoring of the changes in the fluorescence signals (λex=340 nm/380 nm, λem=510-520 nm) was initiated at 1 minute prior to the addition of capsaicin solution or acidic buffer and continued for 5 minute.

A short description of data set [1]: Half-life in human liver microsomes (HLM). Format: in vitro ADME. The settings on record: human liver microsomes (HLM, HL101), 1 μM compound, 0.78 mg/mL HLM, pH 7.4, 37° C., NADPH. The method, then:
Test compounds (1 μM) were incubated with 3.3 mM MgCl2 and 0.78 mg/mL HLM (HL101) in 100 mM potassium phosphate buffer (pH 7.4) at 37° C. on the 96-deep well plate. The reaction mixture was split into two groups, a non-P450 and a P450 group. NADPH was only added to the reaction mixture of the P450 group. An aliquot of samples of P450 group was collected at 0, 10, 30, and 60 minute time points, where the 0 minute time point indicated the time when NADPH was added into the reaction mixture of P450 group. An aliquot of samples of non-P450 group was collected at −10 and 65 minute time points. Collected aliquots were extracted with an acetonitrile solution containing an internal standard. The precipitated protein was spun down in a centrifuge (2000 rpm, 15 min). The compound concentration in supernatant was measured by LC/MS/MS system.
The half-life value was obtained by plotting the natural logarithm of the peak area ratio of compounds/internal standard versus time. The slope of the line of best fit through the points yields the rate of metabolism (k). This was converted to a half-life value using following equations: Half-life=ln 2/k Mono-Iodoacetate (MIA)-Induced OA Model

Sequence of human VR1 (Q8NER1 whole entry): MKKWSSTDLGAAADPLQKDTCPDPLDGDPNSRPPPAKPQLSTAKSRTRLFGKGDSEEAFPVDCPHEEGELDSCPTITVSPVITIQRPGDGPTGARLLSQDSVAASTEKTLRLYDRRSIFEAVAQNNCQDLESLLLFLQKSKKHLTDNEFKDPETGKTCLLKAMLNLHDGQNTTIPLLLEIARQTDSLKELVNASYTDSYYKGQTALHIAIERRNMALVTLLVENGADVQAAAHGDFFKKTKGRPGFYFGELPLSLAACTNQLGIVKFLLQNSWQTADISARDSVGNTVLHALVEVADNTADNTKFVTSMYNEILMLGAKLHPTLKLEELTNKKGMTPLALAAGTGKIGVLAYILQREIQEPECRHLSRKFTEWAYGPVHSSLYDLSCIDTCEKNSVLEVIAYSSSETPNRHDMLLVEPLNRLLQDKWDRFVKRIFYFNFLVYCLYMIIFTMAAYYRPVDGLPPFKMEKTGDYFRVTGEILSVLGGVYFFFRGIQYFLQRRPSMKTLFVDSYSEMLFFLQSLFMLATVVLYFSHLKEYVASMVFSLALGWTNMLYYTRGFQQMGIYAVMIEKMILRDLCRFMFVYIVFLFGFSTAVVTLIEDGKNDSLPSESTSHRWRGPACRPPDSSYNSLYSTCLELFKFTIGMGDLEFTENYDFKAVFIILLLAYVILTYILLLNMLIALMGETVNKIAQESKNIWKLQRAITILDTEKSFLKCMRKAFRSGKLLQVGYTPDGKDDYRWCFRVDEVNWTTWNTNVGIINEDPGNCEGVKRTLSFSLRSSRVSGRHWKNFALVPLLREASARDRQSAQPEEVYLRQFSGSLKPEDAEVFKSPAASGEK

A word on the IC50: it is the concentration at which inhibition is half-maximal. Usually half-life stands for the time in which the quantity being followed falls by half. Lower therefore signals fast loss. `Cc1cc([C@@H](C)NC(=O)COc2cc(F)c(C(C)(C)C)c(F)c2)ccc1NS(C)(=O)=O` [Example 1, 2-(4-TERT-BUTYL-3,5-DIFLUOROPHENOXY)-N-((1R)-1-{3-METHYL-4-[(METHYLSULFONYL)AMINO]PHENYL}ETHYL)ACETAMIDE]: the IC50 on human VR1 amounted to 3.13 nM. Besides, in data set [1], the half-life at 1 μM turned out to be 31 min.

Consider `C[C@@H](NC(=O)COc1cc(F)c(C(C)(C)C)c(F)c1)c1ccc(NS(C)(=O)=O)c(F)c1` [Example 2, 2-(4-TERT-BUTYL-3,5-DIFLUOROPHENOXY)-N-((1R)-1-{3-FLUORO-4-[(METHYLSULFONYL)AMINO]PHENYL}ETHYL)ACETAMIDE], for which the IC50 at human VR1 was 31.3 nM. The half-life at 1 μM in data set [1] is 12 min.

For `C[C@@H](NC(=O)COc1cc(F)c(C(C)(C)C)c(F)c1)c1ccc(NS(C)(=O)=O)cc1` [Example 3, 2-(4-TERT-BUTYL-3,5-DIFLUOROPHENOXY)-N-((1R)-1-{4-[(METHYLSULFONYL)AMINO]PHENYL}ETHYL)ACETAMIDE], the IC50 on human VR1 is 34.4 nM. Further, the half-life at 1 μM in data set [1] was 48 min.

For `C[C@@H](NC(=O)COc1cc(F)c(C(C)(C)C)c(F)c1)c1ccc(NS(C)(=O)=O)c(CO)c1` [Example 4, 2-(4-TERT-BUTYL-3,5-DIFLUOROPHENOXY)-N-((1R)-1-{3-(HYDROXYMETHYL)-4-[(METHYLSULFONYL)AMINO]PHENYL}ETHYL)ACETOAMIDE], on human VR1, the IC50 amounted to 8.7 nM. In data set [1], the half-life at 1 μM was found to be 5.8 min.

As for `Cc1cc([C@@H](C)NC(=O)COc2cc(F)c(C(C)(C)C(F)(F)F)c(F)c2)ccc1NS(C)(=O)=O` [Example 5, 2-[3,5-DIFLUORO-4-(2,2,2-TRIFLUORO-1,1-DIMETHYLETHYL)PHENOXY]-N-((1R)-1-{3-METHYL-4-[(METHYLSULFONYL)AMINO]PHENYL}ETHYL)ACETAMIDE], the IC50 at human VR1 was determined as 7.55 nM. Moreover, the half-life at 1 μM in data set [1] came to 13 min.
